This is an account of results in patent publication US6872706B2, “Glucopyranosyloxybenzylbenzene derivatives and medicinal compositions containing the same” (Kissei Pharmaceutical Co., Ltd., priority 2000, dated 2005).

SMILES strings stand for the structures.

Usually IC50 stands for the concentration at which inhibition is half-maximal. A higher IC50 goes with a need for much substance.

One series concerns the target T1, human SGLT2 (Homo sapiens, UniProt P31639, I433V).
T1 construct: expressed in transfected cells; host or cells: COS-7 cells (RIKEN CELL BANK RCB0539), transient, electroporation
T1 sequence (P31639 1-672 I433V): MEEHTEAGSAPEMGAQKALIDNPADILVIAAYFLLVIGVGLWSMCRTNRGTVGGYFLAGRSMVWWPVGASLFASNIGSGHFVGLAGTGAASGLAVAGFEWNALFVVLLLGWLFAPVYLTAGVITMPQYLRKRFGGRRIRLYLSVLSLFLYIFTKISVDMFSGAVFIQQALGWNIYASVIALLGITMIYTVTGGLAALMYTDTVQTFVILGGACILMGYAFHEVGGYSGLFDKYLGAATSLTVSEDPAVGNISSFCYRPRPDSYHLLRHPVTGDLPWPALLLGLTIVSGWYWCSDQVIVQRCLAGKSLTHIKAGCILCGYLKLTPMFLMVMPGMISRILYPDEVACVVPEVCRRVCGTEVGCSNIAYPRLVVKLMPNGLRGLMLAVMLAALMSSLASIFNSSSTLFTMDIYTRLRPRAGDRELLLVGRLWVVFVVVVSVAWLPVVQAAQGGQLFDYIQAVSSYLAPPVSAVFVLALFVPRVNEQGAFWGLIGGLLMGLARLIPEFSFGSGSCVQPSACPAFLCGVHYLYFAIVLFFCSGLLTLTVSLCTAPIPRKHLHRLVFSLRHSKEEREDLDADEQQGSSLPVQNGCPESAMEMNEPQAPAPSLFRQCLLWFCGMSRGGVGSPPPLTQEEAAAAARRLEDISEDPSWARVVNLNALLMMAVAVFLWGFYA
Kind of series: Assay for inhibitory effect on human SGLT2 activity (uptake of methyl-α-D-glucopyranoside in COS-7 cells expressing transiently human SGLT2). The series is classed as cell-based. Conditions: inhibition of methyl-α-D-(U-14C)glucopyranoside uptake, COS-7 cells expressing transiently human SGLT2, 37° C., 2 hours. Here is the method: Assay for Inhibitory Effect on Human SGLT2 Activity
1) Construction of the Plasmid Vector Expressing Human SGLT2
Preparation of the cDNA library for PCR amplification was performed by reverse transcription of a total RNA deprived from human kidney (Ori gene) with oligo dT as the primer, using […] Preamplification System (Gibco-BRL: LIFE TECHNOLOGIES). […] The amplified DNA fragment was ligated into pCR-Blunt (Invitrogen), a vector for cloning, according to standard method of the kit. The competent cell, Escherichia coli HB101 (Toyobo), was transformed according to usual method and then selection of the transformants was performed on the LB agar medium containing 50 μg/mL of kanamycin. After the plasmid DNA was extracted and purified from the one of the transformants, amplifying of the DNA fragment coding for human SGLT2 was performed by the Pfu DNA Polymerase (Stratagene)-used PCR reaction, in which the following oligo nucleotides 0714F and 0715R, presented as Sequence Numbers 3 and 4 respectively, were used as the primers. The amplified DNA fragment was digested with restriction enzymes, Xho I and Hind III, and then purified with Wizard Purification System (Promega). This purified DNA fragment was inserted at the corresponding multi-cloning sites of pcDNA3.1 (−) Myc/His-B (Invitrogen), a vector for expressing of fusion protein. The competent cell, Escherichia coli HB101 (Toyobo), was transformed according to usual method and then selection of the transformant was performed on the LB agar medium containing 100 μg/mL of ampicillin. After the plasmid DNA was extracted and purified from this transformant, the base sequence of the DNA fragment inserted at the multi-cloning sites of pcDNA3.1 (−) Myc/His-B was analyzed. […] This plasmid vector expressing human SGLT2 in which the peptide presented as Sequence Number 5 is fused to the carboxyl terminal alanine residue was designated KL29.
2) Preparation of the Cells Expressing Transiently Human SGLT2
KL29, the plasmid coding human SGLT2, was transfected into COS-7 cells (RIKEN CELL BANK RCB0539) by electroporation. Electroporation was performed with GENE PULSER II (Bio-Rad Laboratories) under the condition: 0.290 kV, 975 μF, 2×10^6 cells of COS-7 cell and 20 μg of KL29 in 500 μL of OPTI-MEM I medium (Gibco-BRL: LIFE TECHNOLOGIES) in the 0.4 cm type cuvette. After the gene transfer, the cells were harvested by centrifugation and resuspended with OPTI-MEM I medium (1 mL/cuvette). To each well in 96-wells plate, 125 μL of this cell suspension was added. After overnight culture at 37° C. under 5% CO2, 125 μL of DMEM medium which is containing 10% of fetal bovine serum (Sanko Jyunyaku), 100 units/mL sodium penicillin G (Gibco-BRL: LIFE TECHNOLOGIES) and 100 μg/mL streptomycin sulfate (Gibco-BRL: LIFE TECHNOLOGIES) was added to each well. After a culture until the following day, these cells were used for the measurement of the inhibitory activity against the uptake of methyl-α-D-glucopyranoside.
3) Measurement of the Inhibitory Activity Against the Uptake of Methyl-α-D-Glucopyranoside
After a test compound was dissolved in dimethyl sulfoxide and diluted with the uptake buffer (a pH 7.4 buffer containing 140 mM sodium chloride, 2 mM potassium chloride, 1 mM calcium chloride, 1 mM magnesium chloride, 5 mM methyl-α-D-glucopyranoside, 10 mM 2-[4-(2-hydroxyethyl)-1-piperazinyl]ethane sulfonic acid and 5 mM tris (hydroxymethyl) aminomethane), each diluent was used as test sample for measurement of the inhibitory activity.

Series [1] in a line: Assay for the facilitatory effect on urinary glucose excretion. The series is classed as in vivo. Conditions: non-fasted male SD rats, oral, urine collected 24 hours. Here is the method:
Assay for the Facilitatory Effect on Urinary Glucose Excretion
As experimental animal, non-fasted SD rats (SLC. Inc., male, 8 weeks of age, 270-320 g) were used. A test compound was suspended in 0.5% sodium carboxymethylcellulose solution and 0.3, 1 and 3 mg/mL suspension were prepared. Adler the body weights of rats were measured, the test suspension was orally administered at the dose of 10 mL/kg (3, 10 and 30 mg/kg). For the control, just only 0.5% sodium carboxymethylcellulose solution was orally administered at the dose of 10 mL/kg. The oral administration was performed with gastric tube for rat and 2.5 mL syringe. The head count in one group was 5 or 6. Collection of urine was performed in metabolic cage after the oral administration was finished. The sampling time for collection of urine was 24 hours after the oral administration. After collection of urine was finished, the urine volume was recorded and the urinary glucose concentration was measured. The glucose concentration was measured with a kit for laboratory test: Glucose B-Test WAKO (Wako Pure Chemical Industries, Ltd.). The amount of urinary glucose excretion in 24 hours per 200 g of body weight was calculated from urine volume, urinary glucose concentration and body weight.

Another series can be described thus: Acute toxicity test. The note with it: male ICR mice, oral 600 mg/kg, until 24 hours after the administration, 5 animals in each group. Type of series: in vivo. Here is the method:
Four weeks old male ICR mice (CLEA JAPAN, INC. 22-28 g, 5 animals in each group) were fasted for 4 hours, and 60 mg/mL of a suspension of a test compound in 0.5% sodium carboxymethylcellulose solution was orally administered at the dose of 10 mL/kg(600 mg/kg).

On to `CCc1ccc(Cc2ccccc2O[C@@H]2O[C@H](CO)[C@@H](O)[C@H](O)[C@H]2O)cc1` [Reference Example 13, 2-(4-Ethylbenzyl)phenyl β-D-glucopyranoside], for which the IC50 against human SGLT2 was found to be 140 nM. Turning to `CCOC(=O)OC[C@H]1O[C@@H](Oc2ccccc2Cc2ccc(OC)cc2)[C@H](O)[C@@H](O)[C@@H]1O` [Example 1, 2-(4-Methoxybenzyl)phenyl 6-O-ethoxycarbonyl-β-D-glucopyranoside], the figures for the “Amount of Urinary Glucose Excretion” value in series [1] (dose 3 mg/kg), in series [1] (dose 10 mg/kg) and in series [1] (dose 30 mg/kg) were 52 mg/24 hours · 200 g body weight, 239 mg/24 hours · 200 g body weight and 513 mg/24 hours · 200 g body weight, respectively. The Death number in “Acute toxicity test” is listed as 0/5. Regarding `CCOc1ccc(Cc2ccccc2O[C@@H]2O[C@H](CO)[C@@H](O)[C@H](O)[C@H]2O)cc1` [Reference Example 15, 2-(4-Ethoxybenzyl)phenyl β-D-glucopyranoside], the IC50 at human SGLT2 amounted to 330 nM. `CC(C)Oc1ccc(Cc2ccccc2O[C@@H]2O[C@H](CO)[C@@H](O)[C@H](O)[C@H]2O)cc1` [Reference Example 16, 2-(4-Isopropoxybenzy)phenyl β-D-Glucopyranoside] gave an IC50 against human SGLT2 of 370 nM. Take `CC(C)Cc1ccc(Cc2ccccc2O[C@@H]2O[C@H](CO)[C@@H](O)[C@H](O)[C@H]2O)cc1` [Reference Example 14, 2-(4-Isobutylbenzyl)phenyl β-D-glucopyranoside]: the IC50 against human SGLT2 came out at 500 nM. On human SGLT2, `CCSc1ccc(Cc2ccccc2O[C@@H]2O[C@H](CO)[C@@H](O)[C@H](O)[C@H]2O)cc1` [Reference Example 17, 2-(4-Ethylthiobenzyl)phenyl β-D-glucopyranoside] returned an IC50 of 110 nM. This IC50 is about 4.5-fold lower than that of the molecule before. Still for that read-out and setting: with `COc1ccc(Cc2ccccc2O[C@@H]2O[C@H](CO)[C@@H](O)[C@H](O)[C@H]2O)cc1` [Reference Example 11, 2-(4-Methoxybenzyl)phenyl β-D-glucopyranoside] the figure was 350 nM.
